From PMC9695908, “Potent Activation of Human but Not Mouse TRPA1 by JT010” (International Journal of Molecular Sciences, 2022)

Molecular target: T1, human TRPA1 (hTRPA1) (Homo sapiens, UniProt O75762)
T1 construct: wild-type hTRPA1 in HEK cells
Assay: Fura-2 Ca2+ imaging and whole-cell patch clamp in HEK-hTRPA1 cells; C621S and F669M mutants reduce response
Type: cell-based

T1 sequence (O75762 whole entry): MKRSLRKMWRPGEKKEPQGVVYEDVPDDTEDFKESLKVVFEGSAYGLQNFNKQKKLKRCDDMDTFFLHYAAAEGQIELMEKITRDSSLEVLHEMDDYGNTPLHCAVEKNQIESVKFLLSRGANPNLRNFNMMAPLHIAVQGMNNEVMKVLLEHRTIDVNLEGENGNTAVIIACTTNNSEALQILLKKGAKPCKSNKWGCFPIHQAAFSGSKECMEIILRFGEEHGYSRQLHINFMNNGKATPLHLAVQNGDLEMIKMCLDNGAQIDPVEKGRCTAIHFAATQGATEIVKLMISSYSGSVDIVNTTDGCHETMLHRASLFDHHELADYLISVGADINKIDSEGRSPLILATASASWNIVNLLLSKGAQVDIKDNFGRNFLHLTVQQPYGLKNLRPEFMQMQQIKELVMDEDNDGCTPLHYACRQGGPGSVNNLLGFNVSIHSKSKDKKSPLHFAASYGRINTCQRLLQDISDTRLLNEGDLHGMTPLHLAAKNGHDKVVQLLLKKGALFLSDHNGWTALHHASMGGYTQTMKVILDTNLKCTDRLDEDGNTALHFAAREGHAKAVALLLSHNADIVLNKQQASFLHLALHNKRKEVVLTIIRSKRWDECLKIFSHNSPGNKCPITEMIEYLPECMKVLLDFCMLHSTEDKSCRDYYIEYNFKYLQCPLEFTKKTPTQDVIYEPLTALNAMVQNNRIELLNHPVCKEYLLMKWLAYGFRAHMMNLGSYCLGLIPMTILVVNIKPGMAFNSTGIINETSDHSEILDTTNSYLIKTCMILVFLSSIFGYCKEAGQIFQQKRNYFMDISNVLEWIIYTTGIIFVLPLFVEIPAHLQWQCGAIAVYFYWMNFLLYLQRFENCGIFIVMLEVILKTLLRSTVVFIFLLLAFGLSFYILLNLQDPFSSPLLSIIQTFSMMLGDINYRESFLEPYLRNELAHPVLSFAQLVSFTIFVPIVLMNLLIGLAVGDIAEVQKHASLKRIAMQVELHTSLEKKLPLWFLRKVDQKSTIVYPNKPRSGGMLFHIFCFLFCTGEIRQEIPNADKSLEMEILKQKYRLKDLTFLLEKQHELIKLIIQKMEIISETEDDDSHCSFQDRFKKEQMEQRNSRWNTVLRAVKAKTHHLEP

Q: Which EC50 does the source give for `COCCCN(C(=O)CCl)c1nc(-c2ccc(OC)cc2)cs1` [JT010] here?
A: The EC50 was roughly 10 nM.
